Measurements as given in patent US20110077237A1, “KINASE INHIBITORS” (VERTEX PHARMACEUTICALS INCORPORATED, priority 2007, published 2011).

Experiments:
Format in all cases: biochemical
PKC theta [1] = target: T1, PKC theta (Homo sapiens, UniProt Q04759); test: PKC Theta III assay, similar to PKC theta I with fluorescence read out; conditions: fluorescence read out rather than UV
Protocol: An assay buffer solution was prepared which consisted of 100 mM HEPES (pH 7.5), 10 mM MgCl2, 25 mM NaCl, 0.1 mM EDTA and 0.01% Brij. […] To 60 μL of this enzyme buffer, in a 384 well plate, was added 2 μL of VRT stock solution in DMSO. The mixture was allowed to equilibrate for 10 mins at 30° C. The enzyme reaction was initiated by the addition of 5 μL stock ATP solution prepared in assay buffer to a final assay concentration of 240 μM. Initial rate data was determined from the rate of change of absorbance at 340 nm (corresponding to stoichiometric consumption of NADH) using a Molecular Devices Spectramax plate reader (Sunnyvale, Calif.) over 15 mins at 30° C. For each Ki determination 12 data points covering the VRT concentration range of 0-20 μM were obtained in duplicate (DMSO stocks were prepared from an initial 10 mM VRT stock with subsequent 1:2 serial dilutions). Ki values were calculated from initial rate data by non-linear regression using the Prism software package (Prism 4.0a, Graphpad Software, San Diego, Calif.).
Compounds tested in an assay similar to PKC theta I above with a fluorescence read out rather than a UV read out gave the following results: D compounds are (2-aminopyridin-3-yl)(6-(1-benzylpiperidin-4-ylamino)pyridin-2-yl)methanone, and (2-aminopyridin-3-yl)(6-(2,3-dihydroxypropylamino)pyridin-2-yl)methanone (naming by ChemDraw Ultre version 10.0).

PKC theta [2] = target: T1, PKC theta; test: PKC Theta II 33P radiometric kinase assay; conditions: 0.5 nM PKC theta, 240 μM ATP, [γ-33P] ATP, 25° C., compound range 0-0.25 μM
Protocol: An assay buffer solution was prepared which consisted of 100 mM HEPES (pH 7.5), 10 mM MgCl2, 25 mM NaCl, 0.1 mM EDTA and 0.01% Brij. An enzyme buffer containing reagents to final assay concentrations of 0.002% Triton X-100, 200 μg/mL Phosphatidylserine, 20 μg/mL Diacylglycerol, 2 mM DTT, 150 μM substrate peptide ([…]) and 0.5 nM PKC theta kinase was prepared in assay buffer. To 22 μL of this enzyme buffer, in a 96 well plate, was added 2 μL of VRT stock solution in DMSO. The mixture was allowed to equilibrate for 10 mins at 25° C. […] ATP.
The reaction was stopped after 60 minutes by the addition of 100 μL 100 mM phosphoric acid. A phosphocellulose 96 well plate (Millipore, Cat no. MAPHNOB) was washed with […] 100 mM phosphoric acid prior to the addition of the reaction mixture (120 μL) and was left to soak for at least 30 minutes, prior to wash steps (4×200 μL 100 mM phosphoric acid). After drying, 100 μL Optiphase ‘SuperMix’ liquid scintillation cocktail (Perkin Elmer) was added to the well prior to scintillation counting (1450 Microbeta Liquid Scintillation Counter, Wallac).
For each Ki determination, 11 data points covering the VRT concentration range of 0-0.25 μM were obtained in duplicate (DMSO stocks were prepared from an initial 10 mM VRT stock with subsequent 1:2 serial dilutions). Ki values were calculated from initial rate data by non-linear regression using the Prism software package (Prism 4.0a, Graphpad Software, San Diego, Calif.).

PKC delta kinase = PKC delta kinase (Homo sapiens, UniProt Q05655); test: PKC Delta coupled-enzyme kinase assay; conditions: 46 nM PKC delta, 150 μM ATP, 30° C.; read-out: Ki PKC delta
Summary of the method: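 Assay buffer was 100 mM HEPES pH 7.5, 10 mM MgCl2, 25 mM NaCl, 0.1 mM EDTA, 0.01% Brij. Enzyme buffer was equilibrated with compound in DMSO for 10 min at 30 °C. Ki values were derived by non-linear regression of initial rate data.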

PKC alpha kinase = PKC alpha kinase (Homo sapiens, UniProt P17252); test: PKC Alpha coupled-enzyme kinase assay; conditions: 4.5 nM PKC alpha, 130 μM ATP, 30° C.
Summary of the method: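 Coupled-enzyme assay in HEPES pH 7.5 with MgCl2, CaCl2, EDTA and Brij; enzyme preincubated with compound 10 min at 30 °C, reaction started with ATP (final 130 μM).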

T1 sequence (Q04759 whole entry): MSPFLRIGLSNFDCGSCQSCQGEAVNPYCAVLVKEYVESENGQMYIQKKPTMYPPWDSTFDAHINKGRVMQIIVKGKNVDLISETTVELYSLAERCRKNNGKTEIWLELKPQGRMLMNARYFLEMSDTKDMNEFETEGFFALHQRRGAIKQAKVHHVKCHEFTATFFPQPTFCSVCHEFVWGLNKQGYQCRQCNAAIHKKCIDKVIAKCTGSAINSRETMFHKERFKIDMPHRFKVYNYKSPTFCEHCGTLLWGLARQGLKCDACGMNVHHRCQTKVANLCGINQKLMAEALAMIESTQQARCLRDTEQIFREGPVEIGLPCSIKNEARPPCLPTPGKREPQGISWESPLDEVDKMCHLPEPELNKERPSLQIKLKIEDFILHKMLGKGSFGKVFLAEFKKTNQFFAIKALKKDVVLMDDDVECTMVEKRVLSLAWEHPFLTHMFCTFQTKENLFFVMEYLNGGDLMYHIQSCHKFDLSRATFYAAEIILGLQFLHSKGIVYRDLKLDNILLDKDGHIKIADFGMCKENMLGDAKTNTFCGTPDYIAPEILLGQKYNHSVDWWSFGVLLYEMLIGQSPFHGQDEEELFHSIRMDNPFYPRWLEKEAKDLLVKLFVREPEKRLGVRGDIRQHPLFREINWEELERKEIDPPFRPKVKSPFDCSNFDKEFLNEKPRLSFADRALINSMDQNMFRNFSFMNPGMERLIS
PKC delta kinase, sequence (Q05655 whole entry): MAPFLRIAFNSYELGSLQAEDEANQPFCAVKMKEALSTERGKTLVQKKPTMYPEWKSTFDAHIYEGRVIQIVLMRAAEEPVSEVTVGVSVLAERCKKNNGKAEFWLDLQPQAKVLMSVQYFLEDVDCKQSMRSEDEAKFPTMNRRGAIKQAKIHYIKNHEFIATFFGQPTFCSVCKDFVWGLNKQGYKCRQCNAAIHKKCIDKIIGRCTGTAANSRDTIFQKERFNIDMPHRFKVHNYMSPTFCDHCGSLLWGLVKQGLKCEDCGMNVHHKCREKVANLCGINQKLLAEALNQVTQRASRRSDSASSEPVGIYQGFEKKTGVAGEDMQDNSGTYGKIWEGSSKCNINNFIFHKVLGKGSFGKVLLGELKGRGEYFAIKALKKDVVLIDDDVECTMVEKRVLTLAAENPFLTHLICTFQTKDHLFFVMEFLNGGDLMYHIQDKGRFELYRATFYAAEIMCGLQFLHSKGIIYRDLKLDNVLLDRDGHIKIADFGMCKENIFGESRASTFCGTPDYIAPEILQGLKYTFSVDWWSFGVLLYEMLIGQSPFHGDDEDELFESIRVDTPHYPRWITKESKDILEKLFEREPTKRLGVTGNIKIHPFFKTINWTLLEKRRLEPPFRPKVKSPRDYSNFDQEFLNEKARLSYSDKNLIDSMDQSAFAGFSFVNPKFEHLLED

Row | Ki (PKC theta [1]) [nM] | Ki (PKC theta [2]) [nM] | Ki (PKC delta kinase) [nM] | Ki (PKC alpha kinase) [nM] | SMILES
1 | > 2800 | – | – | – | Nc1ncccc1C(=O)c1cccc(NC2CCN(Cc3ccccc3)CC2)n1 [(2-aminopyridin-3-yl)(6-(1-benzylpiperidin-4-ylamino)pyridin-2-yl)methanone]
2 | > 2800 | – | – | – | Nc1ncccc1C(=O)c1cccc(NCC(O)CO)n1 (centres unmarked) [(2-aminopyridin-3-yl)(6-(2,3-dihydroxypropylamino)pyridin-2-yl)methanone]
3 | – | < 50 | 50 to 500 | < 50 | Nc1ncc(-c2ccccc2)cc1C(=O)c1cccc(N2CCCNCC2)n1 [compound 45]
4 | – | 50 to 500 | 50 to 500 | < 50 | C=Cc1cnc(N)c(C(=O)c2cccc(N3CCCNCC3)n2)c1 [compound 66]
